ChEMBL document CHEMBL3868618, “Synthesis and biological evaluation of chalcone derivatives containing aminoguanidine or acylhydrazone moieties” (Bioorg Med Chem Lett, 2016)
Converted amounts (≈) assume the structure as drawn.

How the values were obtained:
[1] = system: Staphylococcus aureus; assay: Antibacterial activity against Staphylococcus aureus 503 measured after 24 hrs by two-fold serial dilution method; assay type: functional; details: Staphylococcus aureus, 503, 24 h
[2] = system: Staphylococcus aureus; assay: Antibacterial activity against Staphylococcus aureus 4220 measured after 24 hrs by two-fold serial dilution method; assay type: functional; details: Staphylococcus aureus, 4220, 24 h
[3] = system: Staphylococcus aureus; assay: Antibacterial activity against Staphylococcus aureus 209 measured after 24 hrs by two-fold serial dilution method; assay type: functional; details: Staphylococcus aureus, 209, 24 h
[4] = system: Streptococcus mutans; assay: Antibacterial activity against Streptococcus mutans 3065 measured after 24 hrs by two-fold serial dilution method; assay type: functional; details: Streptococcus mutans, 3065, 24 h
[5] = system: Escherichia coli; assay: Antibacterial activity against Escherichia coli 1924 measured after 24 hrs by two-fold serial dilution method; assay type: functional; details: Escherichia coli, 1924, 24 h
[6] = system: Escherichia coli; assay: Antibacterial activity against Escherichia coli 1356 measured after 24 hrs by two-fold serial dilution method; assay type: functional; details: Escherichia coli, 1356, 24 h
[7] = system: Salmonella typhimurium; assay: Antibacterial activity against Salmonella typhimurium 1926 measured after 24 hrs by two-fold serial dilution method; assay type: functional, Salmonella enterica subsp. enterica serovar Typhimurium; details: Salmonella enterica, 1926, 24 h
[8] = system: Pseudomonas aeruginosa; assay: Antibacterial activity against Pseudomonas aeruginosa 2742 measured after 24 hrs by two-fold serial dilution method; assay type: functional; details: Pseudomonas aeruginosa, 2742, 24 h
[9] = system: Candida albicans; assay: Antifungal activity against Candida albicans 7535 measured after 24 hrs by two-fold serial dilution method; assay type: functional; details: Candida albicans, 7535, 24 h
[10] = system: Staphylococcus aureus; assay: Antibacterial activity against methicillin-resistant Staphylococcus aureus 3167 measured after 24 hrs by two-fold serial dilution method; assay type: functional; details: Staphylococcus aureus, 3167, 24 h
[11] = system: Staphylococcus aureus; assay: Antibacterial activity against methicillin-resistant Staphylococcus aureus 3506 measured after 24 hrs by two-fold serial dilution method; assay type: functional; details: Staphylococcus aureus, 3506, 24 h
[12] = system: Staphylococcus aureus; assay: Antibacterial activity against quinolone-resistant Staphylococcus aureus 3505 measured after 24 hrs by two-fold serial dilution method; assay type: functional; details: Staphylococcus aureus, 3505, 24 h
[13] = system: Staphylococcus aureus; assay: Antibacterial activity against quinolone-resistant Staphylococcus aureus 3519 measured after 24 hrs by two-fold serial dilution method; assay type: functional; details: Staphylococcus aureus, 3519, 24 h
[14] = system: Mus musculus; assay: Antiinflammatory activity in mouse assessed as inhibition of xylene-induced ear edema at 100 mg/kg, ip administered 30 mins before xylene challenge measured after 30 mins relative to DMSO-control; assay type: functional

SMILES	MIC [1] [µg/mL]	MIC [2] [µg/mL]	MIC [3] [µg/mL]	MIC [4] [µg/mL]	MIC [5] [µg/mL]	MIC [6] [µg/mL]	MIC [7] [µg/mL]	MIC [8] [µg/mL]	MIC [9] [µg/mL]	MIC [10] [µg/mL]	MIC [11] [µg/mL]	MIC [12] [µg/mL]	MIC [13] [µg/mL]	inhibition in vivo at 100 mg/kg [14] [%]
COc1ccc(C(=O)/C=C/c2ccc(/C=N/NC(=N)N)cc2)cc1	16 (≈ 49.6 µM)	16 (≈ 49.6 µM)	16 (≈ 49.6 µM)	8 (≈ 24.8 µM)	16 (≈ 49.6 µM)	32 (≈ 99.3 µM)	2 (≈ 6.2 µM)	8 (≈ 24.8 µM)	8 (≈ 24.8 µM)	16 (≈ 49.6 µM)	8 (≈ 24.8 µM)	16 (≈ 49.6 µM)	16 (≈ 49.6 µM)	57.2
N=C(N)N/N=C/c1ccc(/C=C/C(=O)c2ccc(Cl)cc2)cc1	4 (≈ 12.2 µM)	2 (≈ 6.12 µM)	4 (≈ 12.2 µM)	4 (≈ 12.2 µM)	2 (≈ 6.12 µM)	8 (≈ 24.5 µM)	4 (≈ 12.2 µM)	2 (≈ 6.12 µM)	4 (≈ 12.2 µM)	4 (≈ 12.2 µM)	2 (≈ 6.12 µM)	4 (≈ 12.2 µM)	8 (≈ 24.5 µM)	56.4
N=C(N)N/N=C/c1ccc(/C=C/C(=O)c2ccc(Br)cc2)cc1	4 (≈ 10.8 µM)	2 (≈ 5.39 µM)	4 (≈ 10.8 µM)	4 (≈ 10.8 µM)	2 (≈ 5.39 µM)	32 (≈ 86.2 µM)	2 (≈ 5.39 µM)	2 (≈ 5.39 µM)	2 (≈ 5.39 µM)	8 (≈ 21.5 µM)	2 (≈ 5.39 µM)	4 (≈ 10.8 µM)	16 (≈ 43.1 µM)	68.9
O=C(N/N=C/c1ccc(/C=C/C(=O)c2ccccc2Cl)cc1)c1ccccc1	64 (≈ 165 µM)	> 64	64 (≈ 165 µM)	> 64	> 64	> 64	> 64	> 64	> 64	64 (≈ 165 µM)	64 (≈ 165 µM)	64 (≈ 165 µM)	64 (≈ 165 µM)	
Cc1ccc(C(=O)/C=C/c2ccc(/C=N/NC(=N)N)cc2)c(C)c1	8 (≈ 25 µM)	4 (≈ 12.5 µM)	8 (≈ 25 µM)	8 (≈ 25 µM)	8 (≈ 25 µM)	8 (≈ 25 µM)	8 (≈ 25 µM)	4 (≈ 12.5 µM)	8 (≈ 25 µM)	8 (≈ 25 µM)	4 (≈ 12.5 µM)	8 (≈ 25 µM)	8 (≈ 25 µM)	64.2
N=C(N)N/N=C/c1ccc(/C=C/C(=O)c2ccccc2F)cc1	8 (≈ 25.8 µM)	4 (≈ 12.9 µM)	8 (≈ 25.8 µM)	8 (≈ 25.8 µM)	8 (≈ 25.8 µM)	16 (≈ 51.6 µM)	4 (≈ 12.9 µM)	4 (≈ 12.9 µM)	8 (≈ 25.8 µM)	8 (≈ 25.8 µM)	4 (≈ 12.9 µM)	8 (≈ 25.8 µM)	8 (≈ 25.8 µM)	91.7
O=C(N/N=C/c1ccc(/C=C/C(=O)c2ccccc2F)cc1)c1ccccc1	> 64	> 64	> 64	> 64	> 64	> 64	> 64	> 64	> 64	64 (≈ 172 µM)	64 (≈ 172 µM)	> 64	> 64	
O=C(/C=C/c1ccc(/C=N/NC(=O)c2cccc(Cl)c2)cc1)c1ccc(Cl)cc1	32 (≈ 75.6 µM)	32 (≈ 75.6 µM)	32 (≈ 75.6 µM)	> 64	32 (≈ 75.6 µM)	32 (≈ 75.6 µM)	> 64	> 64	> 64	32 (≈ 75.6 µM)	32 (≈ 75.6 µM)	32 (≈ 75.6 µM)	32 (≈ 75.6 µM)	
N=C(N)N/N=C/c1ccc(/C=C/C(=O)c2ccccc2Br)cc1	8 (≈ 21.5 µM)	4 (≈ 10.8 µM)	8 (≈ 21.5 µM)	8 (≈ 21.5 µM)	8 (≈ 21.5 µM)	16 (≈ 43.1 µM)	4 (≈ 10.8 µM)	8 (≈ 21.5 µM)	8 (≈ 21.5 µM)	8 (≈ 21.5 µM)	8 (≈ 21.5 µM)	8 (≈ 21.5 µM)	16 (≈ 43.1 µM)	78.3
O=C(N/N=C/c1ccc(/C=C/C(=O)c2ccccc2Br)cc1)c1ccccc1	> 64	> 64	> 64	> 64	> 64	> 64	> 64	> 64	> 64	> 64	> 64	> 64	> 64	
N=C(N)N/N=C/c1ccc(/C=C/C(=O)c2cccc(Cl)c2)cc1	4 (≈ 12.2 µM)	4 (≈ 12.2 µM)	4 (≈ 12.2 µM)	4 (≈ 12.2 µM)	4 (≈ 12.2 µM)	8 (≈ 24.5 µM)	2 (≈ 6.12 µM)	4 (≈ 12.2 µM)	4 (≈ 12.2 µM)	4 (≈ 12.2 µM)	2 (≈ 6.12 µM)	4 (≈ 12.2 µM)	8 (≈ 24.5 µM)	80.7
N=C(N)N/N=C/c1ccc(/C=C/C(=O)c2ccccc2Cl)cc1	8 (≈ 24.5 µM)	8 (≈ 24.5 µM)	8 (≈ 24.5 µM)	8 (≈ 24.5 µM)	8 (≈ 24.5 µM)	16 (≈ 49 µM)	8 (≈ 24.5 µM)	8 (≈ 24.5 µM)	8 (≈ 24.5 µM)	8 (≈ 24.5 µM)	8 (≈ 24.5 µM)	8 (≈ 24.5 µM)	16 (≈ 49 µM)	84.1
N=C(N)N/N=C/c1ccc(/C=C/C(=O)c2ccc(F)cc2)cc1	8 (≈ 25.8 µM)	4 (≈ 12.9 µM)	8 (≈ 25.8 µM)	8 (≈ 25.8 µM)	4 (≈ 12.9 µM)	8 (≈ 25.8 µM)	4 (≈ 12.9 µM)	4 (≈ 12.9 µM)	4 (≈ 12.9 µM)	8 (≈ 25.8 µM)	4 (≈ 12.9 µM)	8 (≈ 25.8 µM)	8 (≈ 25.8 µM)	90.7
O=C(/C=C/c1ccc(/C=N/NC(=O)c2cccc(Cl)c2)cc1)c1cccc(Cl)c1	32 (≈ 75.6 µM)	32 (≈ 75.6 µM)	32 (≈ 75.6 µM)	> 64	32 (≈ 75.6 µM)	32 (≈ 75.6 µM)	> 64	> 64	> 64	32 (≈ 75.6 µM)	32 (≈ 75.6 µM)	32 (≈ 75.6 µM)	32 (≈ 75.6 µM)	
Cc1ccc(C(=O)/C=C/c2ccc(/C=N/NC(=N)N)cc2)cc1	4 (≈ 13.1 µM)	4 (≈ 13.1 µM)	4 (≈ 13.1 µM)	8 (≈ 26.1 µM)	4 (≈ 13.1 µM)	8 (≈ 26.1 µM)	4 (≈ 13.1 µM)	2 (≈ 6.53 µM)	2 (≈ 6.53 µM)	8 (≈ 26.1 µM)	2 (≈ 6.53 µM)	4 (≈ 13.1 µM)	4 (≈ 13.1 µM)	77.7
OC(Cn1cncn1)(Cn1cncn1)c1ccc(F)cc1F [FLUCONAZOLE]									1 (≈ 3.27 µM)					
COc1c(N2CCNC(C)C2)c(F)cc2c(=O)c(C(=O)O)cn(C3CC3)c12 (configuration not stated) [GATIFLOXACIN]	4 (≈ 10.7 µM)	0.25 (≈ 0.666 µM)	2 (≈ 5.33 µM)	0.5 (≈ 1.33 µM)	2 (≈ 5.33 µM)	16 (≈ 42.6 µM)	2 (≈ 5.33 µM)	1 (≈ 2.66 µM)		2 (≈ 5.33 µM)	2 (≈ 5.33 µM)	8 (≈ 21.3 µM)	4 (≈ 10.7 µM)	
CC(C)Cc1ccc(C(C)C(=O)O)cc1 (configuration not stated) [IBUPROFEN]														87.4
COc1c(N2C[C@@H]3CCCN[C@@H]3C2)c(F)cc2c(=O)c(C(=O)O)cn(C3CC3)c12 [MOXIFLOXACIN]	2 (≈ 4.98 µM)	0.25 (≈ 0.623 µM)		0.25 (≈ 0.623 µM)		128 (≈ 319 µM)	1 (≈ 2.49 µM)							
CCn1cc(C(=O)O)c(=O)c2cc(F)c(N3CCNCC3)cc21 [NORFLOXACIN]										8 (≈ 25.1 µM)	4 (≈ 12.5 µM)	> 64	> 64	
Cc1onc(-c2ccccc2)c1C(=O)N[C@@H]1C(=O)N2[C@@H]1SC(C)(C)[C@@H]2C(=O)O [OXACILLIN]										> 64	> 64	1 (≈ 2.49 µM)	1 (≈ 2.49 µM)	
